Measured values taken from patent US20030118597A1 (priority 2001, published 2003).

Columns and labels:
[1] = preliminary data, animal model
[2] = tested on: microsomal cyclooxygenase system; conditions: animal models; cited from earlier work
[3] = tested on: hypophyseal adrenal system; conditions: cited from earlier work

Compound	allergen component of the venom [1]	strength relative to Indomethacine [2]	potency of released cortisol relative to hydrocortisone [3]
Phospholipase A2	major allergen component	–	–
Adolapin [Ado lapin]	–	70 times	–
CC[C@H](C)[C@H](NC(=O)CN)C(=O)NCC(=O)N[C@@H](C)C(=O)N[C@H](C(=O)N[C@@H](CC(C)C)C(=O)N[C@@H](CCCCN)C(=O)N[C@H](C(=O)N[C@@H](CC(C)C)C(=O)N[C@H](C(=O)N[C@H](C(=O)NCC(=O)N[C@@H](CC(C)C)C(=O)N1CCC[C@H]1C(=O)N[C@@H](C)C(=O)N[C@@H](CC(C)C)C(=O)N[C@H](C(=O)N[C@@H](CO)C(=O)N[C@@H](Cc1c[nH]c2ccccc12)C(=O)N[C@H](C(=O)N[C@@H](CCCCN)C(=O)N[C@@H](CCCNC(=N)N)C(=O)N[C@@H](CCCCN)C(=O)N[C@@H](CCCNC(=N)N)C(=O)N[C@@H](CCC(N)=O)C(=O)N[C@@H](CCC(N)=O)C(N)=O)[C@@H](C)CC)[C@@H](C)CC)[C@@H](C)O)[C@@H](C)O)C(C)C)C(C)C [Melittin]	major allergen component	–	100 times
